Data: ChEMBL document CHEMBL2151026, “Comparative study on antioxidant capacity of flavonoids and their inhibitory effects on oleic acid-induced hepatic steatosis in vitro” (Eur J Med Chem, 2011)
The source made the active and inactive calls. The rule behind the calls is not given here.

What was measured:
[1] = Reducing activity assessed as chlorogenic acid equivalent per mmol standard at 37 degC for 30 mins by Folin-Ciocalteu reagent assay
HepG2 [2] = assay: Inhibition of oleic acid-induced triglyceride over-accumulation in human HepG2 cells incubated for 24 hrs relative to untreated control; format: functional; conditions: for IC30: Homo sapiens, HepG2, 24 h
HepG2 [3] = assay: Cytotoxicity against human HepG2 cells incubated for 24 hrs by MTT assay; format: cell-based; conditions: hepg2, 24 h
HepG2 [4] = assay: Antioxidant activity in human HepG2 cells assessed as reduction of oleic acid-induced ROS generation incubated for 24 hrs by DHCF-DA based fluorimetric assay relative to untreated control; format: functional; conditions: for IC30: Homo sapiens, HepG2, 24 h
[5] = Reducing activity by cyclic voltammetry
HepG2 [6] = assay: Proxidant activity in human HepG2 cells assessed as increase in oleic acid-induced ROS generation at >25 uM incubated for 24 hrs by […] based fluorimetric assay relative to untreated control; format: cell-based; conditions: hepg2, 24 h
HepG2 [7] = assay: Proxidant activity in human HepG2 cells assessed as increase in oleic acid-induced ROS generation at >10 uM incubated for 24 hrs by […] based fluorimetric assay relative to untreated control; format: cell-based; conditions: hepg2, 24 h

Structure (SMILES)	Activity [1]	Imax (HepG2 [2])	Activity (HepG2 [3])	Imax (HepG2 [4])	IC30 (HepG2 [4])	Activity [5]	IC30 (HepG2 [2])	inhibition (HepG2 [4])	Activity (HepG2 [6])	Activity (HepG2 [7])
COc1ccc([C@@H]2CC(=O)c3c(O)cc(O)cc3O2)cc1O [HESPERETIN]	0.53 mM	inactive	> 100 µM	23%	> 150 µM	0.556 V	–	–	–	–
O=c1c(O)c(-c2cc(O)c(O)c(O)c2)oc2cc(O)cc(O)c12 [MYRICETIN]	1.02 mM	24.8%	> 200 µM	34.5%	123 µM	0.115 V	> 150 µM	Dose-dependent effect	–	–
Oc1cc(O)c2c(c1)O[C@H](c1ccc(O)c(O)c1)[C@@H](O)C2 [CIANIDANOL]	0.77 mM	28.7%	> 250 µM	29.8%	> 250 µM	0.285 V	> 250 µM	–	–	–
O=c1c(O)c(-c2ccc(O)c(O)c2)oc2cc(O)cc(O)c12 [QUERCETIN]	1.24 mM	46.1%	> 75 µM	43.6%	30.8 µM	0.218 V	14.9 µM	Dose-dependent effect	–	–
O=c1c(-c2ccc(O)cc2)coc2cc(O)cc(O)c12 [GENISTEIN]	0.33 mM	inactive	> 50 µM	17.3%	> 50 µM	0.614 V	–	–	–	–
O=C1C[C@@H](c2ccc(O)cc2)Oc2cc(O)cc(O)c21 [NARINGENIN]	0.55 mM	inactive	> 200 µM	inactive	–	0.71 V	–	–	–	–
O=c1c(O)c(-c2ccccc2)oc2cc(O)cc(O)c12 [GALANGIN]	0.75 mM	inactive	> 50 µM	12.4%	> 50 µM	0.354 V	–	–	–	–
C[C@@H]1O[C@@H](OC[C@H]2O[C@@H](Oc3c(-c4ccc(O)c(O)c4)oc4cc(O)cc(O)c4c3=O)[C@H](O)[C@@H](O)[C@@H]2O)[C@H](O)[C@H](O)[C@H]1O [RUTIN]	1.35 mM	28.2%	> 250 µM	25.2%	> 250 µM	0.306 V	> 200 µM	Dose-dependent effect	–	–
O=c1c(O)c(-c2ccc(O)cc2)oc2cc(O)cc(O)c12 [KAEMPFEROL]	1.08 mM	58.6%	> 200 µM	42.2%	68.7 µM	0.189 V	121 µM	Dose-dependent effect	–	–
Oc1cc(O)c2c(c1)O[C@H](c1ccc(O)c(O)c1)[C@H](O)C2 [(-)-EPICATECHIN]	1.05 mM	46.6%	> 250 µM	38.1%	103 µM	–	166 µM	–	–	–
O=c1cc(-c2ccc(O)cc2)oc2cc(O)cc(O)c12 [APIGENIN]	0.39 mM	inactive	> 150 µM	inactive	–	0.623 V	–	–	Toxic	Toxic
O=c1c(-c2ccc(O)cc2)coc2cc(O)ccc12 [DAIDZEIN]	0.4 mM	34.5%	> 200 µM	37.5%	135 µM	0.596 V	140 µM	Dose-dependent effect	–	–
O=C1c2c(O)cc(O)cc2O[C@H](c2ccc(O)c(O)c2)[C@H]1O [(+)-TAXIFOLIN]	0.99 mM	43.4%	> 200 µM	40.1%	40 µM	0.248 V	63.6 µM	–	–	–
COc1cc(-c2oc3cc(O)cc(O)c3c(=O)c2O)ccc1O [ISORHAMNETIN]	1.04 mM	41.8%	> 200 µM	43.8%	69.3 µM	0.115 V	90.5 µM	Dose-dependent effect	–	–
O=C(O[C@@H]1Cc2c(O)cc(O)cc2O[C@@H]1c1cc(O)c(O)c(O)c1)c1cc(O)c(O)c(O)c1 [EPIGALOCATECHIN GALLATE]	2.2 mM	54.2%	> 200 µM	40.2%	26.2 µM	0.125 V	6.3 µM	Dose-dependent effect	–	–
O=c1cc(-c2ccc(O)c(O)c2)oc2cc(O)cc(O)c12 [LUTEOLIN]	0.91 mM	24.2%	> 20 µM	24%	> 20 µM	0.269 V	> 20 µM	–	–	–
O=c1cc(-c2ccccc2)oc2cc(O)cc(O)c12 [CHRYSIN]	0.16 mM	inactive	> 20 µM	inactive	–	0.81 V	–	–	–	–
